From publication PMC4502315, “High Potency of a Novel Resveratrol Derivative, 3,3′,4,4′-Tetrahydroxy-trans-stilbene, against Ovarian Cancer Is Associated with an Oxidative Stress-Mediated Imbalance between DNA Damage Accumulation and Repair” (Oxidative Medicine and Cellular Longevity, 2015)

Tests used:
[1] = system: p38 MAPK; test: p38 MAPK activation (FACE ELISA), SKOV-3; type: cell-based, human; details: 24 h, 10, 50, 100 μM tested
Experimental: (§1) Activation of p38 MAPK was examined using the Fast Activated Cell-Based ELISA (FACE) p38 kit (Active Motif) according to the manufacturer's instructions. In brief, cells were fixed with 4% formaldehyde and incubated with a primary antibody that recognizes either phosphorylated p38 or total p38 overnight at 4°C. Then the cells were washed and incubated with a secondary HRP-conjugated antibody for 1 h at room temperature. The color reaction that developed was read using a spectrofluorometer at 450 nm wavelength.
(§2) The results were expressed as a ratio of phosphorylated to total p38 activity.

[2] = system: p38 MAPK; test: p38 MAPK activation (FACE ELISA), A2780; type: cell-based, human; details: 24 h, 10, 50, 100 μM tested
Experimental: as §1, §2

[3] = system: HOSE cells; test: SA-β-Gal activity (senescence), HOSE cells; type: cell-based, human; details: 24 h, percentage of control cells
Experimental: The activity of SA-β-Gal in the cell extracts was quantified by measuring the rate of conversion of 4-methylumbelliferyl-β-D-galactopyranoside to 4-methylumbelliferone, as described in [19]. In order to visualize expression of the enzyme in the cancer cell cytoplasm, cytochemical staining for SA-β-Gal was performed according to Dimri et al..

[4] = system: p38 MAPK; test: p38 MAPK activation (FACE ELISA), OVCAR-3; type: cell-based, human; details: 24 h, 10, 50, 100 μM tested
Experimental: as §1, §2

[5] = system: HOSE cells; test: MTT viability assay, HOSE cells; type: cell-based, human; details: 24 h; for IC50: Homo sapiens, CalcuSyn; for concentration up to which viability was unchanged: cytotoxicity tests (MTT and LDH release)
Experimental: (§3) Cell viability was assessed with the MTT test and with lactate dehydrogenase (LDH) release assay. As per the MTT method, normal and cancer cells were seeded into 96-well plates at high density and allowed to attach overnight. Then they were incubated in a medium containing 1.25 mg/mL of the MTT salt [3-(4,5-dimethylthiazol-2-yl)-2,5-diphenyltetrazolium bromide] for 24 h at 37°C. The generated formazan was solubilized with 20% sodium dodecyl sulphate and 50% N,N-dimethylformamide. Absorbance of the converted dye was recorded at 595 nm with a reference wavelength of 690 nm.
(§4) In order to examine the effect of 3,3′,4,4′-THS on the viability of ovarian cancer cells and to compare its activity with RVT, subconfluent cultures of A2780, OVCAR-3, and SKOV-3 cells were subjected to a wide range of stilbene concentrations (0–500 μM) for 24 h; then MTT and LDH release assays were performed.

[6] = system: A2780 cells; test: Apoptosis (Hoechst 33258), A2780; type: cell-based, human; details: 24 h, 10, 50, 100 μM tested
Experimental: (§5) Identification of apoptosis was based on the presence of DNA condensation in cells stained with a fluorescent dye, Hoechst 33258 (Molecular Probes, Eugene, OR). Cells were grown on Lab-Tek Chamber Slides (Nunc, Roskilde, Denmark), fixed with 4% formaldehyde for 10 min and washed twice with PBS. Then the cells were incubated with Hoechst 33258 (0.1 μg/mL) for 5 min in the dark. After washing with PBS, stained nuclei were observed and counted under a Zeiss Axio Observer D1 fluorescence microscope (Carl Zeiss, Jena, Germany). The activity of caspases 3, 8, and 9 was quantified in the cell lysates using specific colorimetric kits (Abcam, Cambridge, UK) according to the manufacturer's instructions.

[7] = system: superoxide dismutase (SOD); test: SOD activity in cell lysates, HPMCs; type: cell-based, human; details: 24 h, percentage of control cells
Experimental: (§6) Total activity of superoxide dismutase (SOD) was measured in cell lysates with a commercially available kit (R&D Systems Europe, Abingdon, UK), while the activity of catalase (CAT) was estimated by using the OxiSelect Catalase Activity Assay Kit (Cell Biolabs Inc., San Diego, CA, USA). Both assays were performed according to the manufacturer's instructions.

[8] = system: caspase-3; test: Caspase-3 activity in ovarian cancer cell lysates; type: cell-based, human; details: ovarian cancer cells (A2780, OVCAR-3, SKOV-3); 24 h
Experimental: as §5

[9] = system: catalase (CAT); test: CAT activity, HOSE cells; type: cell-based, human; details: 24 h, percentage of control cells
Experimental: as §6

[10] = system: HPMCs; test: Cell proliferation (CFDA SE), HPMCs; type: cell-based, human; details: 24 h, percentage of control cells
Experimental: (§7) Cell proliferative potential was determined using Cell Proliferation Kit I (PromoKine, Heidelberg, Germany) according to the manufacturer's instructions. In brief, cells were probed for 15 min with 5-(and 6)-carboxyfluorescein diacetate, a succinimidyl ester (CFDA SE; 2 μM) which diffuses into cells, covalently binds to proteins, and becomes fluorescent upon its hydrolysis by intracellular esterases. The fluorescence emitted by the cells (the dye is inherited by the daughter cells through successive divisions) was recorded using a Victor2 spectrofluorometer (Perkin-Elmer, Turku, Finland) with excitation at 435 nm and emission at 535 nm.

[11] = system: HOSE cells; test: Cell proliferation (CFDA SE), HOSE cells; type: cell-based, human; details: 24 h, percentage of control cells
Experimental: as §7

[12] = system: catalase (CAT); test: CAT activity, A2780; type: cell-based, human; details: 24 h, 10, 50, 100 μM tested
Experimental: as §6

[13] = system: catalase (CAT); test: CAT activity, HPMCs; type: cell-based, human; details: 24 h, percentage of control cells
Experimental: as §6

[14] = system: caspase-8; test: Caspase-8 activity in ovarian cancer cell lysates; type: cell-based, human; details: ovarian cancer cells (A2780, OVCAR-3, SKOV-3); 24 h
Experimental: as §5

[15] = system: SKOV-3 cells; test: Apoptosis (Hoechst 33258), SKOV-3; type: cell-based, human; details: 24 h, 10, 50, 100 μM tested
Experimental: as §5

[16] = system: caspase-9; test: Caspase-9 activity in ovarian cancer cell lysates; type: cell-based, human; details: ovarian cancer cells (A2780, OVCAR-3, SKOV-3); 24 h
Experimental: as §5

[17] = system: superoxide dismutase (SOD); test: SOD activity in cell lysates, OVCAR-3; type: cell-based, human; details: 24 h, 10, 50, 100 μM tested
Experimental: as §6

[18] = system: SKOV-3; test: LDH release assay, SKOV-3; type: cell-based; details: Homo sapiens; for IC50: SK-OV-3, 24 h, CalcuSyn
Experimental: As per LDH release, the measurements were performed using the commercially available Pierce LDH Cytotoxicity Assay Kit (Pierce Biotechnology, Rockford, IL, USA). In this assay, cells with damaged plasma membranes release LDH into the culture environment; then the enzyme catalyses the conversion of lactate to pyruvate, which is accompanied by a reduction of NAD^+ to NADH. Afterwards, diaphorase uses NADH to reduce a tetrazolium salt to a formazan whose level is proportional to LDH activity. The absorbance emitted by the formazan was monitored at 490 nm with a reference wavelength of 680 nm.
as §4

[19] = system: OVCAR-3; test: MTT viability assay, OVCAR-3; type: cell-based; details: Homo sapiens, 24 h; for IC50: CalcuSyn
Experimental: as §3, §4

| Compound | p38 MAPK activity (phosphorylated/total), effect in words [1] | p38 MAPK activity (phosphorylated/total), effect in words [2] | SA-β-Gal ([3]; 10 μM) | SA-β-Gal ([3]; 50 μM) | SA-β-Gal ([3]; 100 μM) | p38 MAPK activity (phosphorylated/total), effect in words [4] | IC50 [5] | concentration up to which viability was unchanged [5] | incidence of apoptosis (rise in percentage of death cells), effect in words [6] | SOD ([7]; 10 μM) | SOD ([7]; 50 μM) | SOD ([7]; 100 μM) | caspase-3 activity, effect in words [8] | CAT ([9]; 10 μM) | CAT ([9]; 50 μM) | CAT ([9]; 100 μM) | Proliferation ([10]; 10 μM) | Proliferation ([10]; 50 μM) | Proliferation ([10]; 100 μM) | Proliferation ([11]; 10 μM) | further results |
| --- | --- | --- | --- | --- | --- | --- | --- | --- | --- | --- | --- | --- | --- | --- | --- | --- | --- | --- | --- | --- | --- |
| Oc1ccc(/C=C/c2cc(O)cc(O)c2)cc1 [RVT, 3,4′,5-trihydroxy-trans-stilbene, reference compound] | failed to activate p38 MAPK | increased the activity of p38 MAPK at 100 μM | 101 ± 2% | 101 ± 2% | 100 ± 3% | failed to activate p38 MAPK | 485 µM | ≤ 400 µM | exhibiting its impact at concentrations of 50 and 100 μM for the A2780 and SKOV-3 cells | 110 ± 2^∗ % | 112 ± 3^∗ % | 113 ± 2^∗ % | activated caspases 9 and 3, and this activity was evident at 50 and 100 μM | 121 ± 6^∗ % | 119 ± 4^∗ % | 121 ± 6^∗ % | 99 ± 3% | 103 ± 4% | 102 ± 2% | 103 ± 4% | Proliferation ([11]; 50 μM): 102 ± 1%; Proliferation ([11]; 100 μM): 104 ± 2%; CAT activity, effect in words [12]: stimulated the enzyme at 10 μM in the OVCAR-3 cells, at 50 μM in the A2780, OVCAR-3, and SKOV-3 cells, and at 100 μM in the OVCAR-3 and SKOV-3 cells; CAT ([13]; 10 μM): 101 ± 1%; CAT ([13]; 50 μM): 103 ± 4%; CAT ([13]; 100 μM): 118 ± 3^∗ %; caspase-8 activation, effect in words [14]: no effect; incidence of apoptosis (rise in percentage of death cells), effect in words [15]: exhibiting its impact at concentrations of 50 and 100 μM for the A2780 and SKOV-3 cells; caspase-9 activity, effect in words [16]: activated caspases 9 and 3, and this activity was evident at 50 and 100 μM; SOD activity, effect in words [17]: upregulated activity of the enzyme; IC50 [18]: 346 µM; IC50 [19]: 480 µM |
| Oc1ccc(/C=C/c2ccc(O)c(O)c2)cc1O [3,3′,4,4′-THS, 3,3′,4,4′-tetrahydroxy-trans-stilbene] | exerted upregulatory activity at 50 and 100 μM | elicited its stimulatory activity at 50 and 100 μM | 99 ± 2% | 101 ± 3% | 102 ± 5% | exerted upregulatory activity at 50 and 100 μM | 502 µM | ≤ 400 µM | evident starting from the lowest concentration of 10 μM | 122 ± 4^∗# % | 141 ± 3^∗# % | 136 ± 4^∗# % | increased the activity of the same caspases as RVT did | 132 ± 1^∗# % | 163 ± 4^∗# % | 162 ± 1^∗# % | 141 ± 3^∗# % | 103 ± 1% | 102 ± 2% | 116 ± 2^∗ % | Proliferation ([11]; 50 μM): 103 ± 1%; Proliferation ([11]; 100 μM): 99 ± 5%; CAT activity, effect in words [12]: did not change CAT activity; CAT ([13]; 10 μM): 112 ± 2^∗# %; CAT ([13]; 50 μM): 123 ± 4^∗# %; CAT ([13]; 100 μM): 154 ± 1^∗# %; caspase-8 activation, effect in words [14]: lack of activation of caspase-8; incidence of apoptosis (rise in percentage of death cells), effect in words [15]: evident starting from the lowest concentration of 10 μM; caspase-9 activity, effect in words [16]: increased the activity of the same caspases as RVT did; SOD activity, effect in words [17]: increased SOD at 10 μM and decreased the activity of the enzyme at 50 and 100 μM; viability at 10 µM ([18]; SK-OV-3, 10 μM, 24 h, percentage of control cells): 50 ± 2%; viability at 50 µM ([18]; SK-OV-3, 50 μM, 24 h, percentage of control cells): 32 ± 12%; viability at 100 µM ([18]; SK-OV-3, 100 μM, 24 h, percentage of control cells): 24 ± 7%; IC50 [18]: 10 µM; viability at 10 µM ([19]; 10 μM, percentage of control cells): 75 ± 3%; viability at 50 µM ([19]; 50 μM, percentage of control cells): 50 ± 3%; viability at 100 µM ([19]; 100 μM, percentage of control cells): 48 ± 3%; IC50 [19]: 50 µM |
